Source: US20240165092A1, “USE OF AN OREXIN 2 RECEPTOR AGONIST FOR POST OPERATION RECOVERY” (Takeda Pharmaceutical Limited Company, priority 2021, published 2024)

Columns and labels:
Format in all cases: in vivo, rat
[1] = tested on: Male Sprague-Dawley rats; assay: Fentanyl-induced analgesic effects in pain model of postoperative skin incision
[2] = tested on: Male Sprague-Dawley rats; assay: Fentanyl (0.1 mg/kg)-induced respiratory depression assessed by whole body plethysmography (WBP)
[3] = tested on: Male Sprague-Dawley rats; assay: Time to recovery from propofol-induced anesthesia assessed by righting reflex; details: for Duration of anesthesia (min) (Mean): propofol anesthesia 30 min, vehicle 12.8
Method: Male Sprague-Dawley rats, 8 weeks-age, were purchased from Charles river Japan. To induce and maintain propofol anesthesia, a bolus dose of propofol (10 mg/kg) was administered intravenously to rats. After confirming LORR, rats were gently placed in the supine position on a heating pad to maintain body temperature at 37.0-37.5° C. Subsequently, continuous administration of propofol at 60 mg/kg/hr was performed for 30 min. Fifteen minutes after LORR, Compound (I) was administered SC to rats in a volume of 5 mL/kg of BW. As vehicle-treated control, 10.5% (w/v) Captisol®/1.5 mM Na2HPO4 in distilled water was administered to rats. Thirty minutes after confirming LORR, propofol infusion was terminated and time to recovery from LORR was recorded as duration of anesthesia.

[4] = tested on: Male Sprague-Dawley rats; assay: Fentanyl (0.1 mg/kg)-induced sedation assessed by righting reflex; details: for Duration of sedation (min) (Mean): fentanyl 0.1 mg/kg SC, vehicle 88.8
Method: Male Sprague-Dawley rats, 8 weeks-age, were purchased from Charles river Japan. In this study, LORR was used as an indicator of sedation. […] As vehicle-treated control, 10.5% (w/v) Captisol®/1.5 mM Na2HIPO4 in distilled water was administered. The time to recovery from LORR was recorded as duration of sedation.

[5] = tested on: Male Sprague-Dawley rats; assay: Time to recovery from isoflurane-induced anesthesia assessed by righting reflex; details: for Duration of anesthesia (min) (Mean): isoflurane anesthesia 30 min, vehicle 6.15
Method: Male Sprague-Dawley rats, 8 weeks-age, were purchased from Charles river Japan. To induce and maintain isoflurane anesthesia, rats were placed in a pre-filled anesthesia induction chamber isoflurane 4%. The induction of anesthesia was defined as the rat's inability to right itself into the prone position (loss of righting reflex: LORR) after it was placed in the supine position in a cage. After confirming LORR, rats were exposed to 3% isoflurane using a facemask and maintained for 30 min. Fifteen minutes after LORR, Compound (I) was administered subcutaneously (SC) to rats in a volume of 5 mL/kg of body weight (BW). As vehicle-treated control, 10.5% (w/v) Captisol® (CyDex Pharmaceuticals, KS, USA)/1.5 mM Na2HIPO4 in distilled water was administered to rats. Thirty minutes after confirming LORR, isoflurane inhalation was terminated and time to recovery from LORR was recorded as duration of anesthesia. Body temperature was maintained at 37.0-37.5° C. using a heating pad during and after anesthesia.

[6] = tested on: Male Sprague-Dawley rats; assay: Fentanyl-induced analgesic effects in formalin test; details: for Phase I (No. of flinching) / Phase II (No. of flinching): formalin test; for Phase I (No. of flinching): 1 to 11 min; for Phase II (No. of flinching): 16 to 61 min
[7] = Compound (I) 10 mg/kg SC 15 min before fentanyl 0.1 mg/kg SC, 0 to 30 min after fentanyl
[8] = Compound (I) 1.0 mg/kg SC 15 min after LORR
[9] = Compound (I) 3.0 mg/kg + fentanyl 0.045 mg/kg
[10] = Compound (I) 10 mg/kg + fentanyl 0.045 mg/kg

SMILES: COC(=O)N1CCCC(NS(C)(=O)=O)C1COC1CCC(c2ccccc2)CC1 (stereo not drawn) [Compound (I), methyl 3-((methylsulfonyl)amino)-2-(((4-phenylcyclohexyl)oxy)methyl)piperidine-1-carboxylate]
- pain threshold 1 hr after the skin incision ([1]; Compound (I) 3.0 mg/kg SC 15 min before incision + fentanyl 0.03 mg/kg SC): 28.5 g
- pain threshold 1 hr after the skin incision ([1]; Compound (I) 10 mg/kg SC 15 min before incision + fentanyl 0.03 mg/kg SC): 32.2 g
- effect on the analgesic effect of fentanyl ([1]; postoperative skin incision model, fentanyl 0.03 mg/kg, result in words): did not counteract the analgesic effect of fentanyl
- MV (mL/min) (Mean) [2, 7]: 206 mL/min
- RR (breaths/min) (Mean) [2, 7]: 144 breaths/min
- TV (mL/stroke) (Mean) [2, 7]: 1.61 mL/stroke
- fentanyl-induced respiratory depression ([2]; result in words): suppressed fentanyl-induced respiratory depression
- RR, TV and MV compared to that of vehicle group ([2]; with fentanyl 0.1 mg/kg, result in words): increased RR, TV and MV
- Duration of anesthesia (min) (Mean) [3, 8]: 11.7 min
- Duration of anesthesia (min) (Mean) ([3]; Compound (I) 3.0 mg/kg SC 15 min after LORR): 6.70 min
- Duration of anesthesia (min) (Mean) ([3]; Compound (I) 10 mg/kg SC 15 min after LORR): 6.00 min
- time to recovery from propofol-induced anesthesia assessed by righting reflex ([3]; result in words): reduced time to recovery
- Duration of sedation (min) (Mean) ([4]; Compound (I) 1.0 mg/kg SC 10 min after fentanyl): 81.3 min
- Duration of sedation (min) (Mean) ([4]; Compound (I) 3.0 mg/kg SC 10 min after fentanyl): 67.0 min
- Duration of sedation (min) (Mean) ([4]; Compound (I) 10 mg/kg SC 10 min after fentanyl): 42.9 min
- duration of fentanyl-induced sedation assessed by righting reflex ([4]; result in words): reduced duration of fentanyl-induced sedation
- Duration of anesthesia (min) (Mean) ([5]; Compound (I) 0.3 mg/kg SC 15 min after LORR): 3.92 min
- Duration of anesthesia (min) (Mean) [5, 8]: 3.06 min
- time to recovery from isoflurane-induced anesthesia assessed by righting reflex ([5]; result in words): reduced time to recovery
- effect on the analgesic effect of fentanyl ([6]; formalin pain model, fentanyl 0.045 mg/kg, result in words): did not counteract the analgesic effect of fentanyl
- Phase I (No. of flinching) [6, 9]: 5
- Phase I (No. of flinching) [6, 10]: 4
- Phase II (No. of flinching) [6, 9]: 52
- Phase II (No. of flinching) [6, 10]: 45
